From PubChem BioAssay AID1963851 (Molecular Pharmacology Branch, DTP, NCI, 2024)

Tested on: 188146-221-R-J1-PDC complex spheroid viability
Assay: Anticancer human tumor 188146-221-R-J1-PDC patient-derived colon adenocarcinoma cell line growth inhibition [POLQ]
Details: for IC50: curve of first compound; for viability, T/C: stronger effect = lower value
How it was run: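 Patient-derived tumour cells were co-cultured with HUVEC and mesenchymal stem cells as multicellular spheroids at 37 °C. They were treated with POLQ inhibitors (novobiocin, ART-558, RP6685) alone or combined with other agents. Top concentrations were at or near clinical Cmax (otherwise 10 microM; SN-38 at 1 microM), decreasing in half-log steps.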
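Also: spheroids exposed to compounds for seven days.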
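For viability, T/C in this document: 100% = DMSO vehicle control viability.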

O=c1[nH]cc(F)c(=O)[nH]1 + COC1C(OC(N)=O)C(O)C(Oc2ccc3c(O)c(NC(=O)c4ccc(O)c(CC=C(C)C)c4)c(=O)oc3c2C)OC1(C)C was tested. Which IC50 (second compound 0.0316 µM) did it give?
The IC50 was 1010 nM.

What about the IC50 (second compound 0.1 µM) of the same molecule?
Its IC50 is 1240 nM.

What about the IC50 (second compound 0.316 µM) of the same molecule?
The IC50 was 925 nM.

What about the IC50 (second compound 1 µM) of the same molecule?
The IC50 was 984 nM.

And the IC50 (second compound 3.16 µM)?
Its IC50 is 1790 nM.

What about the IC50 (second compound 10 µM) of the same molecule?
The IC50 was 1500 nM.

What about the viability, T/C (second compound 0.0316 µM, first compound 0.0316 µM) of the same molecule?
The viability, T/C was 107%.

What about the viability, T/C (second compound 0.0316 µM, first compound 0.1 µM) of the same molecule?
The viability, T/C was 106%.

What about the viability, T/C (second compound 0.0316 µM, first compound 0.316 µM) of the same molecule?
The viability, T/C was 72.7%.

What about the viability, T/C (second compound 0.0316 µM, first compound 1 µM) of the same molecule?
The viability, T/C was 53.1%.

And the viability, T/C (second compound 0.0316 µM, first compound 3.16 µM)?
Its viability, T/C is 39.8%.

And the viability, T/C (second compound 0.0316 µM, first compound 10 µM)?
The viability, T/C was 34.9%.

And the viability, T/C (second compound 0.1 µM, first compound 0.0316 µM)?
The viability, T/C was 95.2%.

And the viability, T/C (second compound 0.1 µM, first compound 0.1 µM)?
Its viability, T/C is 102%.

What about the viability, T/C (second compound 0.1 µM, first compound 0.316 µM) of the same molecule?
Its viability, T/C is 75.4%.

What about the viability, T/C (second compound 0.1 µM, first compound 1 µM) of the same molecule?
The viability, T/C was 53.7%.

And the viability, T/C (second compound 0.1 µM, first compound 3.16 µM)?
Its viability, T/C is 41.4%.

What about the viability, T/C (second compound 0.1 µM, first compound 10 µM) of the same molecule?
Its viability, T/C is 35%.

And the viability, T/C (second compound 0.316 µM, first compound 0.0316 µM)?
Its viability, T/C is 95.8%.

What about the viability, T/C (second compound 0.316 µM, first compound 0.1 µM) of the same molecule?
The viability, T/C was 98.5%.

What about the viability, T/C (second compound 0.316 µM, first compound 0.316 µM) of the same molecule?
Its viability, T/C is 75.4%.

What about the viability, T/C (second compound 0.316 µM, first compound 1 µM) of the same molecule?
Its viability, T/C is 49.3%.

What about the viability, T/C (second compound 0.316 µM, first compound 3.16 µM) of the same molecule?
The viability, T/C was 37.6%.

And the viability, T/C (second compound 0.316 µM, first compound 10 µM)?
Its viability, T/C is 36.6%.

What about the viability, T/C (second compound 1 µM, first compound 0.0316 µM) of the same molecule?
The viability, T/C was 111%.

What about the viability, T/C (second compound 1 µM, first compound 0.1 µM) of the same molecule?
Its viability, T/C is 101%.

What about the viability, T/C (second compound 1 µM, first compound 0.316 µM) of the same molecule?
Its viability, T/C is 72.4%.

And the viability, T/C (second compound 1 µM, first compound 1 µM)?
The viability, T/C was 49.6%.

And the viability, T/C (second compound 1 µM, first compound 3.16 µM)?
The viability, T/C was 43.8%.

What about the viability, T/C (second compound 1 µM, first compound 10 µM) of the same molecule?
The viability, T/C was 36%.

And the viability, T/C (second compound 3.16 µM, first compound 0.0316 µM)?
The viability, T/C was 102%.

And the viability, T/C (second compound 3.16 µM, first compound 0.1 µM)?
Its viability, T/C is 92.3%.

What about the viability, T/C (second compound 3.16 µM, first compound 0.316 µM) of the same molecule?
Its viability, T/C is 76%.

And the viability, T/C (second compound 3.16 µM, first compound 1 µM)?
Its viability, T/C is 52.1%.

And the viability, T/C (second compound 3.16 µM, first compound 3.16 µM)?
The viability, T/C was 49%.

What about the viability, T/C (second compound 3.16 µM, first compound 10 µM) of the same molecule?
Its viability, T/C is 41.3%.

And the viability, T/C (second compound 10 µM, first compound 0.0316 µM)?
The viability, T/C was 97%.

And the viability, T/C (second compound 10 µM, first compound 0.1 µM)?
The viability, T/C was 90.2%.

What about the viability, T/C (second compound 10 µM, first compound 0.316 µM) of the same molecule?
The viability, T/C was 80.7%.

What about the viability, T/C (second compound 10 µM, first compound 1 µM) of the same molecule?
Its viability, T/C is 53.3%.

What about the viability, T/C (second compound 10 µM, first compound 3.16 µM) of the same molecule?
Its viability, T/C is 43.2%.

What about the viability, T/C (second compound 10 µM, first compound 10 µM) of the same molecule?
Its viability, T/C is 40.6%.
